Data from a melting point compilation (Tetko et al.; mined from patent text by program, amines drawn as free bases though some values may be those of a salt).

| melting point | SMILES |
| --- | --- |
| 156 to 157 °C | CCNc1ccc(C(=O)CBr)cc1S(N)(=O)=O |
| 242 to 244 °C | CN1Cc2cc3ccc4c(c3c(-c3ccc5c(c3)OCO5)c2C1=O)OCO4 |
| 89 to 90 °C | COC(=O)c1ccc(Cl)cc1NC(=O)CSc1cccc(Br)c1 |
| 48 to 50 °C | COc1ccccc1-n1cnc2cc(N)ccc21 |
| 199 to 201 °C | COc1cc(OC)nc(Sc2sccc2[N+](=O)[O-])n1 |
| 212 to 213 °C | CC(C)(O)C1(c2onc(-c3ccc(O)cc3)c2-c2ccccc2)CC1 |
| 58 to 69 °C | CCC1(C)CC(O)CC(C)(C)N1OC(C)c1ccccc1 (stereo unspecified) |
| 161 °C | CC(O)C(CCCc1ccccc1)n1ncc2c(=O)[nH]c(Cc3ccc(Cl)c(Cl)c3)nc21 (stereo unspecified) |
| 195 to 197 °C | COc1cn(-c2ccc(N3CCC(F)(F)C3)cc2F)nc(-c2ccnn2-c2ccccc2)c1=O |
| 184 to 185 °C | CC(C)N(O)C(=O)C=Cc1ccc2ccccc2c1 |
| 241 to 243 °C | COc1cc(C(=O)NC2CCN(C)CC2)ccc1Nc1ncc2c(n1)N(C1CCCC1)CC(F)(F)C(=O)N2C |
| 222 to 224 °C | C#CCN1C(=O)COc2cc(F)c(-n3c(=O)oc4c(c3=O)CCC4)cc21 |
| 105 to 107 °C | CCCCC(CNc1nc(C)c(OC(=O)OCC)c(C)n1)c1ccccc1 (stereo unspecified) |
| > 300 °C | C[C@H](NC(=O)c1c[nH]c2ncc(-c3ccc(C(F)(F)F)cc3)nc12)C(C)(C)C |
| 95 to 106 °C | CC(C)OC(=O)Cn1c(=O)n(C)c(=O)n(-c2cc(N=c3sc(=O)n4n3CCCCC4)c(F)cc2Cl)c1=O |
| 285 to 288 °C | N=C(N)c1ccc(NC(=O)NC(=O)c2ccc(OCC(=O)O)cc2)cc1 |
| 188 °C | C[C@@H]1CNC(=O)c2cc3cc(F)cc(Br)c3n21 |

| melting point | SMILES |
| --- | --- |
| 210 to 213 °C | COC(=O)C1C=CCn2c(=O)[nH]c(=O)n21 (stereo unspecified) |
| 117 to 118 °C | C=C(C)Sc1oc2cc(OC)ccc2c(=O)c1-c1ccccc1 |
| 44 to 45 °C | Nc1ccccc1Oc1ccccc1Cl |
| 141 to 142 °C | C[C@@H](CN1CCc2ccc3c(c21)CCO3)NC(=O)OC(C)(C)C |
| 169 to 170 °C | O=C1[C@H]2CCC[C@H]2N(C(=O)CCCCl)c2ccccc2N1Cc1ccccc1 (relative stereo) |
| 108 to 109 °C | COC(=O)C1CCC(=O)c2c(-c3ccc(Cl)cc3)noc2C1 (stereo unspecified) |
| 89 to 92 °C | O=[N+]([O-])c1cc(C(F)(F)F)ccc1N1CCc2ccccc21 |
| 115 to 118 °C | FC(F)(F)CNc1nc(Cl)nc(Cl)n1 |
| 167 to 169 °C | COC(=O)c1cc(C23CC4CC(CC(C4)C2)C3)c(O)cc1O |
| 97 to 98 °C | O=C(c1ccc(OCCN2CCCC2)cc1)c1c(-c2ccc(Cl)cc2)sc2ccccc12 |
| 95 °C | CCOC(=O)c1cc(F)c(N2CCCC2)nc1Cl |
| 233 to 235 °C | NC1=NCc2c[nH]c3cccc1c23 |
| 121 to 122 °C | CCCc1c[nH]nc1OCCCc1cn(-c2ccc(C(F)(F)F)cn2)nc1OCC |
| 135 to 140 °C | CC(N)C(=O)Nc1cc(OCC(F)(F)F)ccc1-c1cccnc1 (stereo unspecified) |
| 259 to 260 °C | Cc1nnc2cc(C(=O)O)cc(Cl)n12 |
| 186 to 189 °C | CN1CCN(CCCNc2ncc3cc(-c4c(Cl)cccc4Cl)c(NC(=O)Nc4cccc5ccccc45)nc3n2)CC1 |
| 126 °C | COc1ccc2c(C(C)C(=O)OC3CC(=O)NC3=O)cccc2c1 (stereo unspecified) |

More lines, now with the values behind:

| SMILES | melting point |
| --- | --- |
| CC(C)OCC1(C(C)(F)F)c2cc(C#N)ccc2Nc2ncccc21 (stereo unspecified) | 134 to 135 °C |
| O=C(O)CNC=C(Nc1cc(Cl)cc(Cl)c1)[N+](=O)[O-] | 207 °C |
| CC(C#Cc1ccc(-c2ccccc2)o1)N(O)C(N)=O (stereo unspecified) | 163 to 164 °C |
| COc1cc(C2=C(c3c[nH]c4ncccc34)C(=O)NC2=O)cc(OC)c1OC | 162 °C |
| CCOC(=O)C1CCN(c2nnc(NCc3ccc(OC)c(Cl)c3)c3cc([N+](=O)[O-])ccc23)CC1 | 208 to 210 °C |
| O=C(O)c1cnc2ncnn2c1S | 247 to 249 °C |
| CCOC(=O)c1[nH]cnc1Cc1ccccc1 | 149 °C |
| CN1CCC(c2c[nH]c3ccc(NC(=O)c4sccc4Br)nc23)CC1 | 245 to 247 °C |
| N#CCCNC(=O)c1cccc(-c2ccc3occ(-c4ccc(Cl)cc4Cl)c3c2)c1 | 159 to 161 °C |
| CN1CCC(OC(c2cccc(-c3ccn[nH]3)c2)c2nc3ccccc3s2)CC1 (stereo unspecified) | 90 °C |
| O=C1CCCc2sc(CCN3CCC(c4csc5cc(F)ccc45)CC3)cc2N1 | 191 to 193 °C |
| Cc1ccnc(N2CCN(CCc3c(C)n4c5c(cc(O)cc35)CCC4)CC2)c1 | 110 °C |
| CC1CC(=O)NN=C1c1ccc(N2CCOCC2)c([N+](=O)[O-])c1 (stereo unspecified) | 223 to 225 °C |
| COC(=O)COc1ccc(C(C)=O)c(C)c1 | 49 to 50 °C |
| O=[N+]([O-])c1cc(F)c(NS(=O)(=O)c2ccccc2)cc1F | 176 °C |
| Clc1ccc(Oc2c(-c3ccco3)sc3cnccc23)cc1 | 75 to 77 °C |
| Oc1ccc(Sc2cccc(F)n2)cc1 | 123 to 124 °C |
| CC(C)n1nc(-c2sc(NC(=O)c3cccc(F)c3)nc2-c2ccccc2)ccc1=O | 183 to 184 °C |
| Cn1nnc2ccc(CNNc3ccc(Cl)cc3)cc21 | 96 °C |
| C=CCOc1ncc(F)c(O)n1 | 138 to 141 °C |
| Cc1cc(-c2ccc(C(F)(F)F)cc2)nc(Oc2cccc(C(F)(F)F)c2)n1 | 124 to 127 °C |
| COc1ccc(CS[C@@H]2C[C@@H](CNCc3ccccc3)N(S(C)(=O)=O)C2)cc1 | 63 to 64 °C |
| CCCc1c(O)ccc2c(=O)cc(CCC(=O)OCC)oc12 | 127 to 128 °C |

| SMILES | melting point |
| --- | --- |
| CC(=O)c1cccc(C)c1NC(=O)CCBr | 99 to 101 °C |
| Cn1c(C(F)(F)F)nc2c(OCc3ccccc3)cc(Br)cc21 | 141 to 142 °C |
| CCC(Oc1cc(F)ccc1F)C1=NCCN1 (stereo unspecified) | 110 °C |
| Cc1oc(-c2ccccc2)nc1COc1cccc(C=CC=Cc2nnn[nH]2)c1 | 201 to 202 °C |
| Cc1nn(CC(F)COCc2ccccc2)c(-c2ccc(F)cc2)c1-c1ccc2c(c1)NC(=O)CO2 (stereo unspecified) | 138 to 140 °C |
| CCn1c2ccccc2c2cc(NC(=O)c3ccccc3C(F)(F)F)ccc21 | 206 to 207 °C |
| COC(=O)c1cnc2c3cc(NS(C)(=O)=O)ccc3ncn2c1=O | 293 to 296 °C |
| CC(C)Sc1sc(C(=O)N2CCCC2)c2c1-c1oncc1C(C)(C)C2 | 88 to 91 °C |
| Cc1ccc(-c2cc(C(F)(F)F)n3cnc(-c4cccnc4)c3n2)cc1C(F)(F)F | 236 °C |
| Cc1ccc(S(=O)(=O)N2[C@@H](Cc3nc(C)no3)CC[C@H]2c2ccc(F)cc2)cc1 (racemic) | 103 °C |
| O=CNC1=NN(c2ccc(F)cc2)C(c2ccccc2)C1 (stereo unspecified) | 158 to 160 °C |
| CNC(=O)OCC(C)Nc1ncc(Oc2cc(Cl)c(OC)cc2C(C)C)c(N)n1 (stereo unspecified) | 63.5 to 69.4 °C |
| COc1cc2[nH]c(C)c(CCN3CCN(NC(=O)Nc4ccccc4)CC3)c2cc1OC | 170 to 173 °C |
| CCOC(=O)C(=O)c1ccc(OCCOc2ccc3ccccc3c2)s1 | 98 to 100 °C |
| NC(=O)[C@@H]1[C@H](Nc2c(Br)cnc3[nH]c(-c4ccc(N5CCOCC5)cc4)nc23)[C@H]2C=C[C@@H]1C2 | 283 to 284 °C |
| Cc1cc(C)cc(NCc2ccc3nc(NCC(O)CN4CCOCC4)n(Cc4nc(C)ccc4O)c3c2)c1 (stereo unspecified) | 198 °C |
| O=C1c2ccccc2C(=O)N1OCC1COCOC1 | 98 to 106 °C |
| CC=C(C)C1CCC2C3CC(=O)C4=CC(=O)CCC4(C)C3CCC12C (stereo unspecified) | 172 to 178 °C |
| CC1CC2=CC(=O)CCC2C2C(O)CC3(C)C(=O)CCC3C12 (stereo unspecified) | 200 °C |
| COC(=O)c1cc(C(=O)NC2CCOCC2)c2cc(Cc3ccc(F)cc3)cnc2c1O | 246 to 247 °C |
| CCOC(=O)C(Nc1ccc(C(=O)OC)cc1)C(=O)OCC | 66 to 69 °C |
| CC(C)OC(=O)C(Cl)(Cl)P(=O)(OC(C)C)c1ccccc1 (stereo unspecified) | 42 to 44 °C |
| Fc1cccc(CSc2nnc(-c3ncnc4[nH]ccc34)o2)c1 | 182 to 183 °C |

| SMILES | melting point |
| --- | --- |
| COc1ccc(Cc2cc(C(C)(C)C)c(O)c(C(C)(C)C)c2)cc1 | 139 °C |
| CCOc1ccc(C(=O)NCCN2CCC(Oc3ccc(Cl)c(Cl)c3)CC2)cc1 | 118 to 120 °C |
| O=C(CC1CCCCC1)Nc1ccccc1 | 126 to 128 °C |
| COC(=O)CC(C#N)(C(=O)OC)c1cccc2ccc(OC)cc12 (stereo unspecified) | 119 to 121 °C |
| CC(C)CC(=O)C(=O)OCc1ccccc1 | 98 to 100 °C |
| COC(=O)CN(C)S(=O)(=O)c1ccc(Cl)cc1 | 80 to 80.5 °C |
| CN(c1ncnc2[nH]ccc12)C1CCCCC1 | 177 to 180 °C |
| CCOC(=O)C(C)(C)Oc1ccc(-c2ccc(CCNC(=O)c3cc(OC)c(OC)c(OC)c3)cc2)cc1 | < 20 °C |
| CCCCCCCCCCCCCCCCn1cccc1C1=CC(=O)c2ccccc2C1=O | 56 to 57 °C |
| Cc1ccc(C=Cc2cccc(C#N)n2)cc1 | 137 to 138 °C |
| N#CCc1nn2c(C(F)(F)F)cc(-c3ccc(F)c(Cl)c3)nc2c1C#N | 185 °C |
| COc1ccc(C)cc1NC(=O)Nc1ccc2c(c1)CCN(C(=O)Nc1ccc(OCCO)cc1Cl)C2 | 110 to 113 °C |
| CC(=O)OC1Oc2ccc(OS(C)(=O)=O)cc2C1(C)C (stereo unspecified) | 84 to 85 °C |
| Fc1ccc2c(c1)C1OC1c1ccccc1C2 (stereo unspecified) | 239 °C |
| Fc1cccc(Nc2cc(-c3ccnc(NC4CCOCC4)n3)ccn2)c1 | 190 to 192 °C |
| CCS(=O)(=O)c1ccc(COc2cccc3c2CN(C2CCC(=O)NC2=O)C3=O)cc1 (stereo unspecified) | 248 to 250 °C |
| COc1cc2c(c(Cl)c1Cl)SC(C1CCCC1)C2O (stereo unspecified) | 129 to 132 °C |
| Cc1csc2c(S(N)(=O)=O)c(C(N)=O)nn12 | > 270 °C |
| O=C(CBr)c1coc2ccccc2c1=O | 140 to 145 °C |
| c1cnc2ccc(Cn3nnc4ccc(-c5ccc(N6CCCCC6)nc5)nc43)cc2c1 | 133 to 135 °C |
| CC(=O)Nc1nc2c(Oc3cc(N4CCN([C@H](C)c5ccc(F)cc5)CC4)ncn3)cccc2s1 | 244 to 246 °C |
